# Measurements published in PMC9516332 (Frontiers in Oncology, 2022).
# Like-named read-outs stand apart in the source and are kept apart here.
# Legend:
# [1] = biological target: panel of 255 wild-type kinases (Homo sapiens, UniProt Q92918); assay: Kinase panel profiling at 1 µmol/L (MSA or IMAP), percentage inhibition; type: biochemical; conditions: read-out: %-inhibition at 1 µmol/L, HPK1
# [2] = biological target: panel of 255 wild-type kinases (Homo sapiens, UniProt P16234); conditions: kinase PDGFRα, 1 µmol/L single concentration, cited from earlier work
# [3] = biological target: panel of 255 wild-type kinases (Homo sapiens, UniProt Q9NYA1); conditions: kinase SPHK1, 1 µmol/L single concentration, cited from earlier work
# [4] = biological target: panel of 255 wild-type kinases (Homo sapiens, UniProt P43405); conditions: kinase SYK, 1 µmol/L single concentration, cited from earlier work
# [5] = biological target: panel of 255 wild-type kinases (Homo sapiens, UniProt P78362); conditions: kinase SRPK2, 1 µmol/L single concentration, cited from earlier work
# [6] = biological target: panel of 255 wild-type kinases (Homo sapiens, UniProt P22455); conditions: kinase FGFR4, 1 µmol/L single concentration, cited from earlier work
# [7] = biological target: panel of 255 wild-type kinases (Homo sapiens, UniProt Q9P286); conditions: PAK5, 1 µmol/L single concentration, cited from earlier work
# [8] = biological target: panel of 255 wild-type kinases (Homo sapiens, UniProt Q04759); conditions: kinase PKCθ, 1 µmol/L single concentration, cited from earlier work
# [9] = biological target: panel of 255 wild-type kinases (Homo sapiens, UniProt Q9H4B4); conditions: kinase PLK3, 1 µmol/L single concentration, cited from earlier work
# [10] = biological target: panel of 255 wild-type kinases (Homo sapiens, UniProt P06239); conditions: kinase LCK, 1 µmol/L single concentration, cited from earlier work
# [11] = biological target: panel of 255 wild-type kinases (Homo sapiens, UniProt Q13555); conditions: CaMK2γ kinase assay, 1 µmol/L single concentration, cited from earlier work
# [12] = biological target: panel of 255 wild-type kinases (Homo sapiens, UniProt Q14680); conditions: MELK, 1 µmol/L single concentration, cited from earlier work
# [13] = biological target: panel of 255 wild-type kinases (Homo sapiens, UniProt P14616); conditions: kinase IRR, 1 µmol/L single concentration, cited from earlier work
# [14] = biological target: panel of 255 wild-type kinases (Homo sapiens, UniProt P04629); conditions: kinase TRKA, 1 µmol/L single concentration, cited from earlier work
# [15] = biological target: panel of 255 wild-type kinases (Homo sapiens, UniProt O94804); conditions: kinase LOK, 1 µmol/L single concentration, cited from earlier work
# [16] = biological target: panel of 255 wild-type kinases (Homo sapiens, UniProt O96013); conditions: PAK4, 1 µmol/L single concentration, cited from earlier work
# [17] = biological target: panel of 255 wild-type kinases (Homo sapiens, UniProt P11802); conditions: CDK4/CycD3 kinase assay, 1 µmol/L single concentration, cited from earlier work
# [18] = biological target: panel of 255 wild-type kinases (Homo sapiens, UniProt P50750); conditions: CDK9/CycT1 kinase assay, 1 µmol/L single concentration, cited from earlier work
# [19] = biological target: panel of 255 wild-type kinases (Homo sapiens, UniProt P49759); conditions: kinase CLK1, 1 µmol/L single concentration, cited from earlier work
# [20] = kinase HPK1, 1 µmol/L single concentration
# [21] = ref DOI: 10.1158/1535-7163.MCT-18-0877
# [22] = ref DOI: 10.1371/journal.pone.0092146
smiles,measurement,setting,value
CCN1CCN(c2ccc(Nc3cc(N(C)C(=O)Nc4c(Cl)c(OC)cc(OC)c4Cl)ncn3)cc2)CC1 [infigratinib],inhibition at 1 µM,[1]; [20],65%
CNC(=O)c1ccc(-c2cnc3ncc(Cc4ccc5ncccc5c4)n3n2)cc1F [capmatinib],inhibition at 1 µM,[1],0.392%
C=CC(=O)N1CCC[C@@H](n2nc(-c3ccc(Oc4ccccc4)cc3)c3c(N)ncnc32)C1 [ibrutinib],"%-inhibition at 1 µmol/L, PDGFRα",[2]; [21],94%
same,"%-inhibition at 1 µmol/L, SPHK1",[3]; [21],-3.38%
same,"%-inhibition at 1 µmol/L, SYK",[4]; [21],-20%
same,"%-inhibition at 1 µmol/L, SRPK2",[5]; [21],3%
same,"%-inhibition at 1 µmol/L, FGFR4",[6]; [21],37%
same,"%-inhibition, PAK5",[7]; [21],12%
same,"%-inhibition at 1 µmol/L, PKCθ",[8]; [21],-1.13%
same,"%-inhibition at 1 µmol/L, PLK3",[9]; [21],1.53%
same,"%-inhibition at 1 µmol/L, LCK",[10]; [21],100%
same,%-inhibition CaMK2γ,[11]; [21],-1.83%
same,"%-inhibition, MELK",[12]; [21],8%
same,"%-inhibition at 1 µmol/L, IRR",[13]; [21],12%
same,"%-inhibition at 1 µmol/L, TRKA",[14]; [21],59%
same,"%-inhibition at 1 µmol/L, LOK",[15]; [21],24%
same,"%-inhibition, PAK4",[16]; [21],11%
same,%-inhibition CDK4/CycD3,[17]; [21],4%
C[C@@H](Oc1cc(-c2cnn(C3CCNCC3)c2)cnc1N)c1c(Cl)ccc(F)c1Cl [crizotinib],"%-inhibition at 1 µmol/L, PDGFRα",[2]; [22],49%
same,"%-inhibition at 1 µmol/L, SPHK1",[3]; [22],-14%
same,"%-inhibition at 1 µmol/L, SRPK2",[5]; [22],-2.33%
same,"%-inhibition at 1 µmol/L, FGFR4",[6]; [22],0%
same,"%-inhibition, PAK5",[7]; [22],7%
same,"%-inhibition at 1 µmol/L, PKCθ",[8]; [22],-3%
same,"%-inhibition at 1 µmol/L, PLK3",[9]; [22],-2.24%
same,%-inhibition CDK9/CycT1,[18]; [22],5%
same,"%-inhibition at 1 µmol/L, LCK",[10]; [22],98%
same,"%-inhibition at 1 µmol/L, CLK1",[19]; [22],13%
same,%-inhibition CaMK2γ,[11]; [22],-10%
same,"%-inhibition, MELK",[12]; [22],5.47%
same,"%-inhibition at 1 µmol/L, TRKA",[14]; [22],103%
same,"%-inhibition at 1 µmol/L, LOK",[15]; [22],98%
same,"%-inhibition, PAK4",[16]; [22],-5.56%
same,%-inhibition CDK4/CycD3,[17]; [22],7%
Cc1cc(Nc2ncc(Cl)c(Nc3ccccc3S(=O)(=O)C(C)C)n2)c(OC(C)C)cc1C1CCNCC1 [ceritinib],"%-inhibition at 1 µmol/L, PDGFRα",[2]; [21],61%
same,"%-inhibition at 1 µmol/L, SPHK1",[3]; [21],-13%
same,"%-inhibition at 1 µmol/L, SYK",[4]; [21],5%
same,"%-inhibition at 1 µmol/L, SRPK2",[5]; [21],80%
same,"%-inhibition at 1 µmol/L, FGFR4",[6]; [21],69%
same,"%-inhibition, PAK5",[7]; [21],15%
same,"%-inhibition at 1 µmol/L, PKCθ",[8]; [21],-0.708%
same,"%-inhibition at 1 µmol/L, PLK3",[9]; [21],-0.156%
same,%-inhibition CDK9/CycT1,[18]; [21],0.194%
same,"%-inhibition at 1 µmol/L, LCK",[10]; [21],6%
same,"%-inhibition at 1 µmol/L, CLK1",[19]; [21],99%
same,%-inhibition CaMK2γ,[11]; [21],32%
same,"%-inhibition, MELK",[12]; [21],4.5%
same,"%-inhibition at 1 µmol/L, IRR",[13]; [21],102%
same,"%-inhibition at 1 µmol/L, LOK",[15]; [21],75%
same,"%-inhibition, PAK4",[16]; [21],13%
same,%-inhibition CDK4/CycD3,[17]; [21],4.63%
O=C(Nc1cnn2ccc(N3CCC[C@@H]3c3cc(F)ccc3F)nc12)N1CC[C@H](O)C1 [larotrectinib],inhibition at 1 µM,[1]; [20],1%
CC(C)(C)c1nc(-c2cccc(NS(=O)(=O)c3c(F)cccc3F)c2F)c(-c2ccnc(N)n2)s1 [dabrafenib],"%-inhibition at 1 µmol/L, PDGFRα",[2]; [22],63%
same,"%-inhibition at 1 µmol/L, SPHK1",[3]; [22],-18%
same,"%-inhibition at 1 µmol/L, SYK",[4]; [22],37%
same,"%-inhibition at 1 µmol/L, SRPK2",[5]; [22],11%
same,"%-inhibition at 1 µmol/L, FGFR4",[6]; [22],19%
same,"%-inhibition, PAK5",[7]; [22],21%
same,"%-inhibition at 1 µmol/L, LCK",[10]; [22],83%
same,"%-inhibition at 1 µmol/L, CLK1",[19]; [22],7%
same,%-inhibition CaMK2γ,[11]; [22],-5.47%
same,"%-inhibition, MELK",[12]; [22],82%
same,"%-inhibition at 1 µmol/L, IRR",[13]; [22],10%
same,"%-inhibition, PAK4",[16]; [22],11%
same,%-inhibition CDK4/CycD3,[17]; [22],23%
COc1ccc(CN2C3CC2CN(c2ccc(-c4cc(OCC(C)(C)O)cn5ncc(C#N)c45)cn2)C3)cn1 [selpercatinib],inhibition at 1 µM,[1]; [20],8.44%
Cc1cc(Nc2ncnc3ccc(NC4=NC(C)(C)CO4)cc23)ccc1Oc1ccn2ncnc2c1 [tucatinib],inhibition at 1 µM,[1]; [20],4%
Cn1cnc2c(F)c(Nc3ccc(Br)cc3Cl)c(C(=O)NOCCO)cc21 [selumetinib],inhibition at 1 µM,[1]; [20],9.49%
CCN1C(=O)N(c2c(F)c(OC)cc(OC)c2F)Cc2cnc3[nH]c(CN4CCOCC4)cc3c21 [pemigatinib],inhibition at 1 µM,[1]; [20],21%
CO[C@]1(C(=O)N[C@@H](C)c2ccc(-n3cc(F)cn3)nc2)CC[C@H](c2nc(C)cc(Nc3cc(C)[nH]n3)n2)CC1 [pralsetinib],inhibition at 1 µM,[1]; [20],50%
C=CC(=O)N1CCC([C@@H]2CCNc3c(C(N)=O)c(-c4ccc(Oc5ccccc5)cc4)nn32)CC1 [zanubrutinib],inhibition at 1 µM,[1]; [20],1.75%
CCc1cc2c(cc1N1CCC(N3CCOCC3)CC1)C(C)(C)c1[nH]c3cc(C#N)ccc3c1C2=O [alectinib],"%-inhibition at 1 µmol/L, PDGFRα",[2]; [21],43%
same,"%-inhibition at 1 µmol/L, SPHK1",[3]; [21],-10%
same,"%-inhibition at 1 µmol/L, SYK",[4]; [21],-9%
same,"%-inhibition at 1 µmol/L, SRPK2",[5]; [21],93%
same,"%-inhibition at 1 µmol/L, FGFR4",[6]; [21],4%
same,"%-inhibition, PAK5",[7]; [21],8%
same,"%-inhibition at 1 µmol/L, PKCθ",[8]; [21],-2%
same,"%-inhibition at 1 µmol/L, PLK3",[9]; [21],-4%
same,%-inhibition CDK9/CycT1,[18]; [21],-0.0188%
same,"%-inhibition at 1 µmol/L, LCK",[10]; [21],20%
same,"%-inhibition at 1 µmol/L, CLK1",[19]; [21],43%
same,%-inhibition CaMK2γ,[11]; [21],6%
same,"%-inhibition, MELK",[12]; [21],29%
same,"%-inhibition at 1 µmol/L, IRR",[13]; [21],57%
same,"%-inhibition at 1 µmol/L, TRKA",[14]; [21],62%
same,"%-inhibition, PAK4",[16]; [21],6.55%
same,%-inhibition CDK4/CycD3,[17]; [21],-1.89%
Cn1cc(-c2cc3c(N4CCN(c5ncc([C@@](C)(N)c6ccc(F)cc6)cn5)CC4)ncnn3c2)cn1 [avapritinib],inhibition at 1 µM,[1]; [20],15%
